System: MDA-MB-231 cells
Experiment: Extracellular lactate production inhibition after 4 h, MDA-MB-231
Settings: Homo sapiens, MDA-MB-231
Description: Extracellular Lactate Production Inhibition after 4 h
Cells were plated in growth media supplemented with 10% FBS, followed by overnight recovery at 37° C., 5% CO2. […] Plates were then moved for 4 h incubation at 37° C., 5% CO2 with subsequent 20 μl media transfer to empty 384-well transparent plates. […] Plates were short-spun and measured kinetically in absorbance mode (530 nm, 12 min measurement time with 2-minute intervals between subsequent readouts at 30° C.). Differences in the signal between T8 min and T0min were normalized to vehicle (cells w/ 0.25% DMSO) and quasi-positive (LCIS buffer w/ 0.25% DMSO) controls and plotted against logarithmically-transformed test compound concentrations with fitting the 4-parameter model in GraphPad Prism software.

SMILES | IC50
O=C(O)c1ccc(C#Cc2ccccc2NS(=O)(=O)c2ccc(Cl)c3nonc23)cn1 [Compound 99, 5-{2-[2-(7-chloro-2,1,3-benzoxadiazole-4-sulfonamido)phenyl]ethynyl}pyridine-2-carboxylic acid] | 1000 to 100000 nM
COC(=O)c1cc(C)c(C#Cc2cc(F)ccc2NS(=O)(=O)c2ccc(-c3ccccc3)cc2)cn1 [Compound 139, methyl 5-[2-(2-{[1,1′-biphenyl]-4-sulfonamido}-5-fluorophenyl)ethynyl]-4-methylpyridine-2-carboxylate] | 100 to 1000 nM
COc1c(C#Cc2ccccc2NS(=O)(=O)c2ccc(OC)c3cccnc23)cnc(C(=O)O)c1C [Compound 370, 4-Methoxy-5-[2-(5-methoxy-quinoline-8-sulfonylamino)-phenylethynyl]-3-methyl-pyridine-2-carboxylic acid] | 100 to 1000 nM
COc1cc(C(=O)O)ncc1C#Cc1ccccc1N(C=O)Cc1ccc(-c2ccccc2OC)cc1 [Compound 215, 4-methoxy-5-(2-{2-[N-({2′-methoxy-[1,1′-biphenyl]-4-yl}methyl)formamido]phenyl}-ethynyl)pyridine-2-carboxylic acid] | 1 to 10 nM
COc1cc(C(=O)O)ncc1C#Cc1ccccc1NS(=O)(=O)c1cccc2cccnc12 [Compound 366, 4-methoxy-5-{2-[2-(quinoline-8-sulfonamido)phenyl]ethynyl}pyridine-2-carboxylic acid] | 10 to 100 nM
O=C(O)c1ccc(C#Cc2cc(F)ccc2NS(=O)(=O)c2cccc3ccccc23)cc1 [Compound 68, 4-{2-[5-fluoro-2-(naphthalene-1-sulfonamido)phenyl]ethynyl}benzoic acid] | 100 to 1000 nM
CCOc1ccc(S(=O)(=O)Nc2ccccc2C#Cc2ccc(C(=O)O)nc2)c2ncccc12 [Compound 336, 5-{2-[2-(5-ethoxyquinoline-8-sulfonamido)phenyl]ethynyl}pyridine-2-carboxylic acid] | 10 to 100 nM
CCOc1ccnc2c(S(=O)(=O)Nc3ccccc3C#Cc3ccc(C(=O)O)nc3)cccc12 [Compound 348, 5-{2-[2-(4-ethoxyquinoline-8-sulfonamido)phenyl]ethynyl}pyridine-2-carboxylic acid] | 10 to 100 nM
O=CN(Cc1ccc(-c2ccccc2)nc1)c1ccccc1C#Cc1ccc(C(=O)O)nc1 [Compound 220, 5-[2-(2-{N-[(6-phenylpyridin-3-yl)methyl]formamido}phenyl)-ethynyl]pyridine-2-carboxylic acid] | 100 to 1000 nM
Cn1c2ccccc2c2cc(S(=O)(=O)Nc3ccccc3C#Cc3ccc(C(=O)O)nc3)ccc21 [Compound 227, 5-{2-[2-(9-methyl-9H-carbazole-3-sulfonamido)phenyl]ethynyl}pyridine-2-carboxylic acid] | 10 to 100 nM
O=C(O)c1ccc(C#Cc2ccccc2NS(=O)(=O)c2ccc3c(c2)Cc2ccccc2-3)cc1 [Compound 87, 4-{2-[2-(9H-fluorene-2-sulfonamido)phenyl]ethynyl}benzoic acid] | 100 to 1000 nM
O=C(O)c1ncc(C#Cc2ccccc2NS(=O)(=O)c2cccc3ccccc23)cc1C(F)(F)F [Compound 283, 5-{2-[2-(naphthalene-1-sulfon-amido)phenyl]ethynyl}-3-(trifluoro-methyl)pyridine-2-carboxylic acid] | 1000 to 100000 nM
Cc1cc(C)c2cccnc2c1S(=O)(=O)Nc1ccccc1C#Cc1cnc(C(=O)O)c2ccccc12 [Compound 446, 4-{2-[2-(5,7-dimethylquinoline-8-sulfonamido)phenyl]ethynyl}iso-quinoline-1-carboxylic acid] | 100 to 1000 nM
Cc1ccc2cccnc2c1S(=O)(=O)Nc1ccc(Cl)cc1C#Cc1ccc(C(=O)O)nc1 [Compound 363, 5-{2-[5-chloro-2-(7-methylquinoline-8-sulfonamido)phenyl]ethynyl}pyridine-2-carboxylic acid] | 1000 to 100000 nM
O=C(O)c1ccc(C#Cc2cc(Cl)ccc2NS(=O)(=O)c2ccc(Cl)cc2)cn1 [Compound 280, 5-{2-[5-chloro-2-(4-chlorobenzene-sulfonamido)phenyl]ethynyl}pyridine-2-carboxylic acid] | 1000 to 100000 nM
COc1ccc(S(=O)(=O)Nc2ccc(Cl)cc2C#Cc2ccc(C(=O)O)nc2)c(C)c1C [Compound 387, 5-[5-Chloro-2-(4-methoxy-2,3-dimethyl-benzenesulfonylamino)-phenylethynyl]-pyridine-2-carboxylic acid] | 10 to 100 nM
COc1cc(C(=O)O)ncc1C#Cc1cc(Br)ccc1NS(=O)(=O)c1ccc(OC)c2cccnc12 [Compound 356, 5-{2-[5-bromo-2-(5-methoxyquinoline-8-sulfonamido)phenyl]ethynyl}-4-methoxypyridine-2-carboxylic acid] | 1 to 10 nM
Cc1ccc2cccnc2c1S(=O)(=O)Nc1ccccc1C#Cc1cnc(C(=O)O)c2c1NCCN2 [Compound 415, 8-{2-[2-(7-methylquinoline-8-sulfonamido)phenyl]ethynyl}-1H,2H,3H,4H-pyrido[3,4-b]pyrazine-5-carboxylic acid] | 100 to 1000 nM
COc1ccc(S(C)(=O)=Nc2ccccc2C#Cc2ccc(C(=O)O)nc2)cc1 (stereo not drawn) [Compound 428, 5-[2-(2-{[(4-methoxyphenyl)(methyl)oxo-λ6-sulfanylidene]amino}phenyl)ethynyl] pyridine-2-carboxylic acid] | 1000 to 100000 nM
Cc1ccnc2c(S(=O)(=O)Nc3ccccc3C#Cc3ccc(C(=O)O)nc3)cccc12 [Compound 264, 5-[2-(4-Methyl-quinoline-8-sulfonyl-amino)-phenylethynyl]-pyridine-2-carboxylic acid] | 100 to 1000 nM
COC(=O)c1cc(Cl)c(C#Cc2ccccc2NS(=O)(=O)c2c(C)ccc3cccnc23)cn1 [Compound 152, methyl 4-chloro-5-{2-[2-(7-methylquinoline-8-sulfonamido)phenyl]-ethynyl}pyridine-2-carboxylate] | 10 to 100 nM
O=C(O)c1ccc(C#Cc2ccccc2S(=O)(=O)Nc2cccc3ccccc23)cn1 [Compound 450, 5-(2-{2-[(naphthalen-1-yl)sulfamoyl]phenyl}ethynyl)pyridine-2-carboxylic acid] | 1000 to 100000 nM
COc1ccc(S(=O)(=O)Nc2ccc(Br)cc2C#Cc2ccc(C(=O)O)nc2)c2ncccc12 [Compound 328, 5-{2-[5-bromo-2-(5-methoxyquinoline-8-sulfonamido)phenyl]ethynyl}pyridine-2-carboxylic acid] | 1 to 10 nM
O=CN(CCc1cccc2ccccc12)c1ccccc1C#Cc1ccc(C(=O)O)nc1 [Compound 200, 5-[2-(2-{N-[2-(naphthalen-1-yl)ethyl]-formamido}phenyl)ethynyl]pyridine-2-carboxylic acid] | 100 to 1000 nM
COC(=O)c1ccc(C#Cc2ccccc2NS(=O)(=O)c2ccc(OC)c3cccnc23)cn1 [Compound 129, methyl 5-{2-[2-(5-methoxyquinoline-8-sulfonamido)phenyl]ethynyl}pyridine-2-carboxylate] | 10 to 100 nM
Cc1cnc2c(S(=O)(=O)Nc3ccccc3C#Cc3ccc(C(=O)O)nc3)cccc2c1 [Compound 262, 5-[2-(3-Methyl-quinoline-8-sulfonyl-amino)-phenylethynyl]-pyridine-2-carboxylic acid] | 100 to 1000 nM
Cc1ccc2cccnc2c1S(=O)(=O)Nc1ccc(C(C)C)cc1C#Cc1ccc(C(=O)O)nc1 [Compound 416, 5-{2-[2-(7-methylquinoline-8-sulfonamido)-5-(propan-2-yl)phenyl]ethynyl}pyridine-2-carboxylic acid] | 100 to 1000 nM

Reference: patent US12351570B2 (MERCK PATENT GMBH, priority 2018, dated 2025)
